Our source for the Kd values is ChEMBL document CHEMBL3991601, “The target landscape of clinical kinase drugs” (Science, 2017).

Test [1] concerns the target T1, ATP-dependent RNA helicase DHX30 (Homo sapiens, UniProt Q7L2E3).
T1 sequence (Q7L2E3 whole entry): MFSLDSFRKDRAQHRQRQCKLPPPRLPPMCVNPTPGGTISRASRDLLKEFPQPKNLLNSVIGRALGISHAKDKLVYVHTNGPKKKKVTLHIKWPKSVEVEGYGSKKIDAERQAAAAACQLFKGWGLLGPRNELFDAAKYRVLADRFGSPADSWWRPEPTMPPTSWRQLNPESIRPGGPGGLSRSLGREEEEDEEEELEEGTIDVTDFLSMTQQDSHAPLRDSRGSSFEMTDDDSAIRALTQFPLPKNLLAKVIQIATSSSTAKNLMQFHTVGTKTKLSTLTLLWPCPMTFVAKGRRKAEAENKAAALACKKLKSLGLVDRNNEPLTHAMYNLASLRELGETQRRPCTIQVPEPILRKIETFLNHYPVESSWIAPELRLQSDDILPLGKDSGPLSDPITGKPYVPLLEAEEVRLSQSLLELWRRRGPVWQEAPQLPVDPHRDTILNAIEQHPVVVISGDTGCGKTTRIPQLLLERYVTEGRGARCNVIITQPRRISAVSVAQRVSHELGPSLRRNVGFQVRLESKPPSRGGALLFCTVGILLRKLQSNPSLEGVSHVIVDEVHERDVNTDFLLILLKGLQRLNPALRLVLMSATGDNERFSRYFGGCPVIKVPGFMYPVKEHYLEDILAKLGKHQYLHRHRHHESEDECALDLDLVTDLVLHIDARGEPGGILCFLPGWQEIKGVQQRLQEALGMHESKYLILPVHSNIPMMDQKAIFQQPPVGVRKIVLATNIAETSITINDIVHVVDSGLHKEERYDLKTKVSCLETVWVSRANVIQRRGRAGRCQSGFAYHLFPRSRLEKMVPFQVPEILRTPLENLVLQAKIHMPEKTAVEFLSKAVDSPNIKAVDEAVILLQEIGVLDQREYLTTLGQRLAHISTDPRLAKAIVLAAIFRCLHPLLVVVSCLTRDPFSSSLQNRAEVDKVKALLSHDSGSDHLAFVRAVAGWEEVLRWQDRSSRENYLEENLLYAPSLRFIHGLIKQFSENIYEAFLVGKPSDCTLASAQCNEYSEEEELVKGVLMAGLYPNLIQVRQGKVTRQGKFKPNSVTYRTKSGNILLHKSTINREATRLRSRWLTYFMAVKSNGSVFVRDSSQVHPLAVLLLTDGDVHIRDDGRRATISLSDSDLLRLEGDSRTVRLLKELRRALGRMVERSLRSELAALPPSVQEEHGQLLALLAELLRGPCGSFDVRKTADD

The target of test [2] is T2, Eukaryotic translation initiation factor 5B (Homo sapiens, UniProt O60841).
T2 sequence (O60841 whole entry): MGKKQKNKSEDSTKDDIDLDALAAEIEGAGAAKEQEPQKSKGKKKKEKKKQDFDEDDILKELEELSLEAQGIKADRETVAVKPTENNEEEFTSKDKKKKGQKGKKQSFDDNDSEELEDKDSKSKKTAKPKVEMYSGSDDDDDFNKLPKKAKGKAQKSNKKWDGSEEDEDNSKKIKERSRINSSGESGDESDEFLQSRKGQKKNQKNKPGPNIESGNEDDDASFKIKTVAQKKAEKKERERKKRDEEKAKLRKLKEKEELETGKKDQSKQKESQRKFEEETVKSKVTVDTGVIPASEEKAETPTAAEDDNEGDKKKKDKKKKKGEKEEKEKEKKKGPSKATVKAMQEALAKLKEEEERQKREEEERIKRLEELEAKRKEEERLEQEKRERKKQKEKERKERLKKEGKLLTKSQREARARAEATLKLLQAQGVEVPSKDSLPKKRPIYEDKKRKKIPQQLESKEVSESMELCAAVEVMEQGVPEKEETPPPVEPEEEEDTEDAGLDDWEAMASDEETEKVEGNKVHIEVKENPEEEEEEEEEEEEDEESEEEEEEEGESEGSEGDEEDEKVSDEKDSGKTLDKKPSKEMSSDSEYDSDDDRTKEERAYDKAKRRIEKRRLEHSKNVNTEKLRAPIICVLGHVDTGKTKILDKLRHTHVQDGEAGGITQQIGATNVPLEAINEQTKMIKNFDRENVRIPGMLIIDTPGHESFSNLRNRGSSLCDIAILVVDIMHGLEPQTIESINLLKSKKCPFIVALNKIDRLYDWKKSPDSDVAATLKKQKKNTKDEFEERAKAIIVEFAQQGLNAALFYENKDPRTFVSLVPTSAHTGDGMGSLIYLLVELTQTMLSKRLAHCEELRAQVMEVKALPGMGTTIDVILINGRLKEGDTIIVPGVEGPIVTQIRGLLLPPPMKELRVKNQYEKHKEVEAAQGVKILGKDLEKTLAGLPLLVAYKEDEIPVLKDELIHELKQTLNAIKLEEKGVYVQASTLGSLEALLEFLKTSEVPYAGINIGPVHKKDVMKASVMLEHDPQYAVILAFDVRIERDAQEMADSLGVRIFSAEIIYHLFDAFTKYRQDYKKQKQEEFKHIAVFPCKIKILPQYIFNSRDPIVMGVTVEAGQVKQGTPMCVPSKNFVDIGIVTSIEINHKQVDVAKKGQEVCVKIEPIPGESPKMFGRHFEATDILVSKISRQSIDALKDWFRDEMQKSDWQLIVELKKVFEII

For the next test, the target named is Focal adhesion kinase 1 (Homo sapiens, UniProt Q05397).
Sequence of Focal adhesion kinase 1 (Q05397 whole entry): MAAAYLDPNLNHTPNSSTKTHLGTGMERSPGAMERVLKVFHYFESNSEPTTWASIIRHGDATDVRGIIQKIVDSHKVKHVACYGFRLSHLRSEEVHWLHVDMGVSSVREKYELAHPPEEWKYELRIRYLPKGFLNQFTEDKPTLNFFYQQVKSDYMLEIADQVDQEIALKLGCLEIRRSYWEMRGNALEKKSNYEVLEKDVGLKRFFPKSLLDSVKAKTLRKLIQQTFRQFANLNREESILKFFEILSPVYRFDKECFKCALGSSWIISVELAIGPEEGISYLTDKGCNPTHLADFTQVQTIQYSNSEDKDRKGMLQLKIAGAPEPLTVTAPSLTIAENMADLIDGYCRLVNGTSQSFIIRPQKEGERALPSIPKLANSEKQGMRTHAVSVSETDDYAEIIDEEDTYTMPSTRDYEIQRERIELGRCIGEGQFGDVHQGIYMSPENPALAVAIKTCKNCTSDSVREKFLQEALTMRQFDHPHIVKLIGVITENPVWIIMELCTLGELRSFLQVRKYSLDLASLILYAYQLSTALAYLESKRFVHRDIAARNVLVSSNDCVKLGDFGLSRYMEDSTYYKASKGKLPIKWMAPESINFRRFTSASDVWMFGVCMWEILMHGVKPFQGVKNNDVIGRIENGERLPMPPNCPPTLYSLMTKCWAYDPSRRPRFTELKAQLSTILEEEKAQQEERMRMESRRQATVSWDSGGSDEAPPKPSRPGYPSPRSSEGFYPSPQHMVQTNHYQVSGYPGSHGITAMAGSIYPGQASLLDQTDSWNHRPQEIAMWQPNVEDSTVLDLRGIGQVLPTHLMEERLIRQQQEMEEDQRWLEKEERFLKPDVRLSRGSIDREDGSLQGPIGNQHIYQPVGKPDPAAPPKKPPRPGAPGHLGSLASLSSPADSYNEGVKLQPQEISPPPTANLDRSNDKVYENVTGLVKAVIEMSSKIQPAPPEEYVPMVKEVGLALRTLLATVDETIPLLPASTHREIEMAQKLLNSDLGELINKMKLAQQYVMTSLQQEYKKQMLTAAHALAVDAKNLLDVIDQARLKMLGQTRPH
Test [3] deals with G protein-coupled receptor kinase 6 (Homo sapiens, UniProt P43250).
Sequence of G protein-coupled receptor kinase 6 (P43250 whole entry): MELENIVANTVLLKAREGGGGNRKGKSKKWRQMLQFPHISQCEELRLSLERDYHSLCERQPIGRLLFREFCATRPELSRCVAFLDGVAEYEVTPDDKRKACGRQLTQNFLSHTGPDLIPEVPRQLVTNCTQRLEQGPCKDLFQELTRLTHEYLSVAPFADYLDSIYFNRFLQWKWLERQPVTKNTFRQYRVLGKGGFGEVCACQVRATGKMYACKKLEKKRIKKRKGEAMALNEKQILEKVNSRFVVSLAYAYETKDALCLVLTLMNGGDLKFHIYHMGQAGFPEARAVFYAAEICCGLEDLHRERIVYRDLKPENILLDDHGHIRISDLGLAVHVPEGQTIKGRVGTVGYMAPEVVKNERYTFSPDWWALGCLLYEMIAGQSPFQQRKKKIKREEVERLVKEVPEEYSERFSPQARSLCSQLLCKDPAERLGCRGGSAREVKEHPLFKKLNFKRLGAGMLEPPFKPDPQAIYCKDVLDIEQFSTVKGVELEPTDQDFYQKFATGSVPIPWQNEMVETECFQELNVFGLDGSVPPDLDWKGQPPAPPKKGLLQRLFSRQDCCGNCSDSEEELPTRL

Active and inactive are the calls of the source. Some results are limits rather than exact numbers.
Note: in the data inactive means no Kd found up to 30 µM.

In the case of `CCc1nc(C(N)=O)c(Nc2ccc(N3CCC(N4CCN(C)CC4)CC3)c(OC)c2)nc1NC1CCOCC1` [GILTERITINIB], the Kd (in test [1]; in test [2]; on Focal adhesion kinase 1) was > 30 µM (inactive) in each case.

As for `C=CCn1c(=O)c2cnc(Nc3ccc(N4CCN(C)CC4)cc3)nc2n1-c1cccc(C(C)(C)O)n1` [ADAVOSERTIB], the Kd in test [1] and in test [2] was > 30 µM (inactive) throughout.

On to `CCOc1ccn(-c2ccc(F)cc2)c(=O)c1C(=O)Nc1ccc(Oc2ccnc(N)c2Cl)c(F)c1` [BMS-777607], for which the Kd in test [1] and in test [2] was > 30 µM (inactive) in each case.

For `O[C@H]1CC[C@H](Nc2ncc3nc(Nc4c(F)cc(F)cc4F)n([C@H]4CCOC4)c3n2)CC1` [TANZISERTIB], the Kd (in test [1]; in test [2]; at Focal adhesion kinase 1) was > 30 µM (inactive) in each case.

On to `CNC(=O)c1cc(COc2nnc(Nc3ccc(Cl)cc3)c3ccoc23)ccn1` [TELATINIB], for which the Kd (in test [2]; in test [3]; on Focal adhesion kinase 1) was > 30 µM (inactive) throughout.

Consider `COc1cc2ncnc3c2cc1OCCCCCN(C)Cc1ccc(Br)cc1N3` [JNJ-26483327], for which the Kd (in test [1]; in test [2]; at Focal adhesion kinase 1) was > 30 µM (inactive) each time.

In the case of `COc1cc2c(N3CCN(C(=O)Nc4ccc(OC(C)C)cc4)CC3)ncnc2cc1OCCCN1CCCCC1` [TANDUTINIB], the Kd in test [2] and in test [3] was > 30 µM (inactive) in each case.

Turning to `NC(=O)c1ccc(N(C(N)=O)c2c(F)cccc2F)nc1-c1ccc(F)cc1F` [VX-702], the Kd (in test [1]; in test [2]; at Focal adhesion kinase 1) was > 30 µM (inactive) each time.

`Cc1cc(-c2cc(OC(=O)c3ccccc3)ccc2Cl)cc2nnc(Nc3ccc(OCCN4CCCC4)cc3)nc12` [TG100-801]: the Kd (in test [1]; at Focal adhesion kinase 1) was > 30 µM (inactive) each time.

Take `O=C(O)c1ccc2c(c1)nc(Nc1cccc(Cl)c1)c1ccncc12` [SILMITASERTIB]: the Kd on Focal adhesion kinase 1 was > 30 µM (inactive).

With `CCN(CCCOc1ccc2c(Nc3cc(CC(=O)Nc4cccc(F)c4)n[nH]3)ncnc2c1)CCOP(=O)(O)O` [BARASERTIB], the Kd in test [2] is > 30 µM (inactive).

In the case of `CN(C)C/C=C/C(=O)Nc1cc2c(Nc3ccc(F)c(Cl)c3)ncnc2cc1O[C@H]1CCOC1` [AFATINIB], the Kd in test [1] is > 30 µM (inactive).

For `O=S(=O)(c1cccc2c(O)nccc12)N1CCCNCC1` [HYDROXYFASUDIL], the Kd in test [2] and in test [3] was > 30 µM (inactive) each time.

Turning to `CCN1CCN(Cc2ccc(Nc3ncc(F)c(-c4cc(F)c5nc(C)n(C(C)C)c5c4)n3)nc2)CC1` [ABEMACICLIB], the Kd (in test [2]; at Focal adhesion kinase 1) was > 30 µM (inactive) throughout.

In the case of `Cn1cnc2c(F)c(Nc3ccc(Br)cc3Cl)c(C(=O)NOCCO)cc21` [SELUMETINIB], the Kd in test [2] was > 30 µM (inactive).

With `C=CC(=O)Nc1cccc(Nc2nc(Nc3ccc(N4CCN(C(C)=O)CC4)cc3OC)ncc2C(F)(F)F)c1` [ROCILETINIB], the Kd was > 30 µM (inactive) in test [2] and 0.433 µM (active) on Focal adhesion kinase 1.

For `O=c1[nH]c([C@@H]2CCCN2)nc2c1oc1ccc(Cl)cc12`, the Kd (in test [1]; in test [2]; on Focal adhesion kinase 1) was > 30 µM (inactive) throughout.

As to `Cc1c(Cn2c(C)nc3c(C(=O)O)cc(N4CCOCC4)cc32)cccc1C(F)(F)F` [GSK-2636771], the Kd (in test [3]; on Focal adhesion kinase 1) was > 30 µM (inactive) each time.

As for `COc1cc2ncnc(Nc3ccc(O)cc3)c2cc1OC` [WHI-P131], the Kd (in test [1]; in test [2]; on Focal adhesion kinase 1) was > 30 µM (inactive) throughout.

Take `COc1cccc(Nc2ncnn3ccc(CN4CC[C@@H](N)[C@H](O)C4)c23)c1` [BMS-690514]: the Kd on Focal adhesion kinase 1 was > 30 µM (inactive).

On to `COCCN1CCN(Cc2ccc(-c3n[nH]c4c3C(=O)c3c(NC(=O)NN5CCOCC5)cccc3-4)cc2)CC1` [RGB-286638], for which the Kd (in test [1]; in test [2]; at Focal adhesion kinase 1) was > 30 µM (inactive) each time.

On to `CC(C)(O)CC(=O)NCCn1ccc2ncnc(Nc3ccc(Oc4cccc(C(F)(F)F)c4)c(Cl)c3)c21` [TAK-285], for which the Kd (in test [1]; on Focal adhesion kinase 1) was > 30 µM (inactive) each time.

Consider `C=CCN(/C=C1/C(=O)O[C@H](COC)[C@@]2(C)C1=C(O)C(=O)C1=C2[C@H](OC(C)=O)C[C@]2(C)C(=O)CC[C@@H]12)CC=C` [SONOLISIB], for which the Kd at Focal adhesion kinase 1 was > 30 µM (inactive).

Take `O=C(NC[C@H](O)CO)c1ccncc1Nc1ccc(I)cc1F` [PIMASERTIB]: the Kd (in test [1]; in test [2]; on Focal adhesion kinase 1) was > 30 µM (inactive) in each case.

With `Cn1c(=O)n(-c2ccc(C(C)(C)C#N)cc2)c2c3cc(-c4cnc5ccccc5c4)ccc3ncc21` [DACTOLISIB], the Kd in test [2] was > 30 µM (inactive).

As to `Cc1c(NC(=O)OC[C@@H]2COCCN2)cn2ncnc(Nc3ccc4c(cnn4Cc4cccc(F)c4)c3)c12` [AC-480], the Kd on Focal adhesion kinase 1 is > 30 µM (inactive).

As for `COc1cc(Nc2ncc(F)c(Nc3ccc4c(n3)N(COP(=O)(O)O)C(=O)C(C)(C)O4)n2)cc(OC)c1OC` [FOSTAMATINIB], the figures for the Kd (in test [1]; at Focal adhesion kinase 1) were > 30 µM (inactive) and 5.4 µM (active), respectively.

With `CC(C)CC(=O)Nc1[nH]nc2c1CN(C(=O)C1CCN(C)CC1)C2(C)C` [PHA-793887], the Kd in test [2] and in test [3] was > 30 µM (inactive) in each case.

With `CN(c1ncccc1CNc1nc(Nc2ccc3c(c2)CC(=O)N3)ncc1C(F)(F)F)S(C)(=O)=O` [PF-00562271], the Kd in test [2] was > 30 µM (inactive).

In the case of `C[C@@]1(C(=O)Nc2ccc(F)nc2)CCCN1c1nc(Nc2cc(C3CC3)n[nH]2)c2cccn2n1` [BMS-754807], the Kd in test [2] and in test [3] was > 30 µM (inactive) in each case.

With `CC[C@@](C)(Nc1ccnc(-c2c[nH]c3ncccc23)n1)C(=O)NCC(F)(F)F` [DECERNOTINIB], the Kd (in test [1]; at Focal adhesion kinase 1) was > 30 µM (inactive) throughout.

With `COc1cc2nccc(Oc3ccc(NC(=O)C4(C(=O)Nc5ccc(F)cc5)CC4)cc3)c2cc1OC` [CABOZANTINIB], the Kd (in test [1]; in test [2]; on Focal adhesion kinase 1) was > 30 µM (inactive) each time.

On to `NC[C@@](O)(c1ccc(Cl)cc1)c1ccc(-c2cn[nH]c2)cc1` [AT-13148], for which the Kd (in test [2]; at Focal adhesion kinase 1) was > 30 µM (inactive) throughout.

For orientation: Kd means the constant that tells how readily two partners part at equilibrium.
